What was measured:
Assay type in all cases: in vivo
[1] = system: waterhemp_RES2 (ALS & HPPD resistant common waterhemp, Amaranthus rudis); assay: Test E greenhouse herbicide test, postemergence
Description: (§1) At the same time, plants from these crop and weed species and also waterhemp_RES1, (ALS & Triazine resistant common waterhemp, Amaranthus rudis), and waterhemp_RES2, (ALS & HPPD resistant common waterhemp, Amaranthus rudis) were planted in pots containing Redi-Earth® planting medium (Scotts Company, 14111 Scottslawn Road, Marysville, Ohio 43041) comprising spaghnum peat moss, vermiculite, wetting agent and starter nutrients were treated with postemergence applications of test chemicals formulated in the same manner. Plants ranged in height from 2 to 18 cm for postemergence treatments (1- to 4-leaf stage). Treated plants and controls were maintained in a greenhouse for 14 to 21 d, after which time all species were compared to controls and visually evaluated. Plant response ratings, summarized in Table E, are based on a scale of 0 to 100 where 0 is no effect and 100 is complete control. A dash (-) response means no test result.

[2] = system: waterhemp_RES1 (ALS & Triazine resistant common waterhemp, Amaranthus rudis); assay: Test E greenhouse herbicide test, postemergence
Description: as §1

soybean (Glycine max) = assay: Test E greenhouse herbicide test, pre- and postemergence; conditions: Postemergence
Text: (§2) Seeds of plant species selected from corn (Zea mays), soybean (Glycine max), velvetleaf (Abutilon theophrasti), lambsquarters (Chenopodium album), wild poinsettia (Euphorbia heterophylla), pigweed, palmer (palmer pigweed, Amaranthus palmeri), waterhemp (common waterhemp, Amaranthus rudis), surinam grass (Brachiaria decumbens), crabgrass, large (large crabgrass, Digitaria sanguinalis), crabgrass, Brazilian (Brazilian crabgrass, Digitaria horizontalis), panicum, fall (fall panicum, Panicum dichotomiflorum), foxtail, giant (giant foxtail, Setaria faberii), foxtail, green (green foxtail, Setaria viridis), goosegrass (Eleusine indica), johnsongrass (Sorghum halepense), ragweed (common ragweed, Ambrosia elatior), barnyardgrass (Echinochloa crus-galli), sandbur (southem sandbur, Cenchrus echinatus), arrowleaf sida (Sida rhombifolia), Italian ryegrass (Lolium multiflorum), dayflower (Virginia (VA) dayflower, Commelina virginica), field bindweed (Convolvulus arvensis), momingglory (Ipomoea coccinea), nightshade (eastern black nightshade, Solanum ptycanthum), kochia (Kochia scoparia), nutsedge, yellow (yellow nutsedge, Cyperus esculentus), horseweed (Conyza canadensis), and beggarticks (hairy beggarticks, Bidens pilosa), were planted into a silt loam soil and treated preemergence with test chemicals formulated in a non-phytotoxic solvent mixture which included a surfactant.
as §1

[3] = system: horseweed (Conyza canadensis); assay: as above; conditions: Postemergence
Text: as §2, §1

[4] = system: pigweed, palmer (palmer pigweed, Amaranthus palmeri); assay: as above; conditions: Postemergence
Text: as §2, §1

[5] = system: waterhemp (common waterhemp, Amaranthus rudis); assay: as above; conditions: Postemergence
Text: as §2, §1

kochia (Kochia scoparia) = assay: as above; conditions: Postemergence
Text: as §2, §1

[6] = system: sandbur (southem sandbur, Cenchrus echinatus); assay: as above; conditions: Postemergence
Text: as §2, §1

[7] = system: ragweed (common ragweed, Ambrosia elatior); assay: as above; conditions: Postemergence
Text: as §2, §1

[8] = system: crabgrass, Brazilian (Brazilian crabgrass, Digitaria horizontalis); assay: as above; conditions: Postemergence
Text: as §2, §1

[9] = system: arrowleaf sida (Sida rhombifolia); assay: as above; conditions: Postemergence
Text: as §2, §1

[10] = 31 g ai/ha, visual, scale 0 no effect to 100 complete control
[11] = 125 g ai/ha, scale 0 to 100 (0 no effect, 100 complete control)
[12] = 250 g ai/ha, scale 0 to 100 (0 no effect, 100 complete control)
[13] = 62 g ai/ha, scale 0 to 100 (0 no effect, 100 complete control)

With `CSCC(=O)Oc1c(C)nn(C)c(=O)c1-c1cccc2ccccc12` [Compound 171] the “Plant response rating, Waterhemp_RES2” value [1, 10] was 15, the “Plant response rating, Waterhemp_RES2” value [1, 11] was 40 and the “Plant response rating, Waterhemp_RES2” value [1, 12] was 60. The “Plant response rating, Waterhemp_RES1” value [2, 10] was 50, the “Plant response rating, Waterhemp_RES1” value [2, 11] was 75 and the “Plant response rating, Waterhemp_RES1” value [2, 12] was 90. The “Plant response rating, Soybean” value (soybean (Glycine max); [11]) was 50, the “Plant response rating, Soybean” value (soybean (Glycine max); [12]) was 70 and the “Plant response rating, Soybean” value (soybean (Glycine max); [10]) was 40. The “Plant response rating, Horseweed” value [3, 13] was 60, the “Plant response rating, Horseweed” value [3, 11] was 70 and the “Plant response rating, Horseweed” value [3, 12] was 60. For the same compound, the “Plant response rating, Horseweed” value [3, 10] was 50, the “Plant response rating, Pigweed, Palmer” value [4, 13] was 50 and the “Plant response rating, Pigweed, Palmer” value [4, 11] was 60. For the same compound, the “Plant response rating, Pigweed, Palmer” value [4, 12] was 70, the “Plant response rating, Pigweed, Palmer” value [4, 10] was 50 and the “Plant response rating, Waterhemp” value [5, 11] was 85. The “Plant response rating, Waterhemp” value [5, 12] was 90, the “Plant response rating, Waterhemp” value [5, 10] was 80 and the “Plant response rating, Kochia” value (kochia (Kochia scoparia); [13]) was 95. The “Plant response rating, Kochia” value (kochia (Kochia scoparia); [11]) was 100, the “Plant response rating, Kochia” value (kochia (Kochia scoparia); [12]) was 100 and the “Plant response rating, Kochia” value (kochia (Kochia scoparia); [10]) was 90. The “Plant response rating, Sandbur” value [6, 11] was 50, the “Plant response rating, Sandbur” value [6, 12] was 60 and the “Plant response rating, Sandbur” value [6, 10] was 30. The “Plant response rating, Ragweed” value [7, 13] was 75, the “Plant response rating, Ragweed” value [7, 11] was 90 and the “Plant response rating, Ragweed” value [7, 12] was 98. The “Plant response rating, Ragweed” value [7, 10] was 60, the “Plant response rating, Crabgrass, Brazil” value [8, 13] was 50 and the “Plant response rating, Crabgrass, Brazil” value [8, 11] was 50. The “Plant response rating, Crabgrass, Brazil” value [8, 12] was 60, the “Plant response rating, Crabgrass, Brazil” value [8, 10] was 40 and the “Plant response rating, Arrowleaf Sida” value [9, 13] was 80. The “Plant response rating, Arrowleaf Sida” value [9, 11] was 90, the “Plant response rating, Arrowleaf Sida” value [9, 12] was 95 and the “Plant response rating, Arrowleaf Sida” value [9, 10] was 80.

— patent publication US10597388B2, “Pyridazinone herbicides” (FMC CORPORATION, priority 2014, dated 2020)
